Test results as given in PubChem BioAssay (NCI).
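Step 1: Grow cells in 96-well plates. Step 2: Expose to compound for 48 hours at 5 concentrations. Step 3: Interpolate endpoints linearly; if unreached, use highest concentration. TGI denotes the concentration required for complete inhibition of growth.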

These compounds were tested on SF-295 CNS (assay: NCI anticancer screen, dose series, 48 h).

Row | Compound | TGI
1 | [O-][n+]1nc(N2CCOCC2)nc2ccccc21 | > 100 µM
2 | Cc1sc2nc(N(C)C)oc(=O)c2c1C | > 100 µM
3 | Cc1cccc(N/C(=C(/C(Cl)=C(Cl)Cl)[N+](=O)[O-])n2nnc3ccccc32)c1 | 32 µM
4 | NC(CSS(=O)(=O)O)=NC1CC2CCC1C2 (configuration not stated) | > 100 µM
5 | CN1CCC23c4c5ccc(Oc6nnnn6-c6ccccc6)c4OC2c2[nH]c4ccccc4c2CC3(O)C1C5 (configuration not stated) | 15.3 µM
6 | Cc1cn(C2OC(CO[Si](C)(C)C(C)(C)C)/C(=C\C#N)C2O[Si](C)(C)C(C)(C)C)c(=O)[nH]c1=O (configuration not stated) | 83.5 µM
7 | C[C@]12CCC(O)CC1=CC[C@@H]1[C@@H]2CC[C@]2(C)C(O)[C@H](n3ccnc3)C[C@@H]12 (some centres not stated) | > 100 µM
8 | O=C(CC(O)(C(F)(F)F)C(F)(F)F)C(c1ccccc1)C(O)(C(F)(F)F)C(F)(F)F (configuration not stated) | > 100 µM
9 | CC(C)CCCC(C)[C@H]1CC[C@H]2n3c(nnc3-c3ccccc3)CCC[C@]12C (some centres not stated) | 21.9 µM
10 | OC1=C2c3ccccc3NC2Oc2cc(F)ccc21 (configuration not stated) | 29.5 µM

Each compound was assayed on SF-539 CNS (assay: NCI anticancer screen, dose series, 48 h).

Row | Compound | TGI
11 | CCOc1cccc(C=Nc2ccccc2SSc2ccccc2N=Cc2cccc(OCC)c2O)c1O | 80.2 µM
12 | C[N+]12CCCCC1C(COc1cccc3cccnc13)CCC2 (configuration not stated) | > 100 µM
13 | Cc1ccc(S(=O)(=O)NC(=O)NCc2ccc(S(N)(=O)=O)cc2)cc1 | > 100 µM
14 | NC(=O)NC1NC(=O)NC1=O (configuration not stated) | > 100 µM
15 | CC[C@@]1(O)C(=O)OCc2c1cc1n(c2=O)Cc2c-1nc1ccccc1c2/C=N\NC(=O)C[n+]1ccccc1 | 0.971 µM
16 | COc1ccccc1C[C@@H]1OC2(C=CC(=O)CC2SC(=O)c2ccccc2)O[C@H]1Cc1ccccc1OC (some centres not stated) | 3.08 µM
17 | COc1ccc(CC2Cc3ccccc3CCN2)cc1OC (configuration not stated) | > 50 µM
18 | CN(C)CCn1c(=O)c2ccc(NCCNCCO)c3c(=O)c4ccccc4n(c1=O)c23 | 0.593 µM
19 | OCC1OC(NC(=S)NCCC(F)(F)C(F)(F)C(F)(F)C(F)(F)C(F)(F)C(F)(F)F)C(O)C(O)C1O (configuration not stated) | > 100 µM
20 | CSC1=N/C(=C\c2ccc(C)cc2)C(=O)N1 | > 100 µM
21 | COc1cc2c(cc1OCCCNC(=O)c1cc3ccccc3[nH]1)N=C[C@@H]1CCCN1C2=O | 0.539 µM
22 | COC(=O)/C(C)=N/NC(=S)SC | > 100 µM
23 | [O-][n+]1nc(N2CCOCC2)nc2ccccc21 | > 100 µM
24 | COc1ccc(NC(=S)Nc2cc(C)ccn2)cc1 | > 100 µM
25 | Cc1sc2nc(N(C)C)oc(=O)c2c1C | > 100 µM
26 | Cc1cccc(N/C(=C(/C(Cl)=C(Cl)Cl)[N+](=O)[O-])n2nnc3ccccc32)c1 | 32 µM
27 | NC(CSS(=O)(=O)O)=NC1CC2CCC1C2 (configuration not stated) | > 100 µM
28 | Cc1cn(C2OC(CO[Si](C)(C)C(C)(C)C)/C(=C\C#N)C2O[Si](C)(C)C(C)(C)C)c(=O)[nH]c1=O (configuration not stated) | 97.1 µM
29 | C[C@]12CCC(O)CC1=CC[C@@H]1[C@@H]2CC[C@]2(C)C(O)[C@H](n3ccnc3)C[C@@H]12 (some centres not stated) | > 100 µM
30 | O=C(CC(O)(C(F)(F)F)C(F)(F)F)C(c1ccccc1)C(O)(C(F)(F)F)C(F)(F)F (configuration not stated) | 94.1 µM
31 | CC(C)CCCC(C)[C@H]1CC[C@H]2n3c(nnc3-c3ccccc3)CCC[C@]12C (some centres not stated) | 25.1 µM

Each compound was assayed on SK-MEL-2 melanoma (assay: NCI anticancer screen, dose series, 48 h).

Row | Compound | TGI
32 | CCOc1cccc(C=Nc2ccccc2SSc2ccccc2N=Cc2cccc(OCC)c2O)c1O | 37.7 µM
33 | Cc1c2c(cc3c1C(=O)C(=O)C([C@@H](C)CO)=C3O)C(C)(C)CCC2 | 47.2 µM
34 | C[N+]12CCCCC1C(COc1cccc3cccnc13)CCC2 (configuration not stated) | > 100 µM
35 | Cc1ccc(S(=O)(=O)NC(=O)NCc2ccc(S(N)(=O)=O)cc2)cc1 | > 100 µM
36 | NC(=O)NC1NC(=O)NC1=O (configuration not stated) | > 100 µM
37 | CC[C@@]1(O)C(=O)OCc2c1cc1n(c2=O)Cc2c-1nc1ccccc1c2/C=N\NC(=O)C[n+]1ccccc1 | > 89.6 µM
38 | COc1ccccc1C[C@@H]1OC2(C=CC(=O)CC2SC(=O)c2ccccc2)O[C@H]1Cc1ccccc1OC (some centres not stated) | 3.31 µM
39 | COc1ccc(CC2Cc3ccccc3CCN2)cc1OC (configuration not stated) | > 50 µM
40 | CN(C)CCn1c(=O)c2ccc(NCCNCCO)c3c(=O)c4ccccc4n(c1=O)c23 | 1.85 µM
41 | OCC1OC(NC(=S)NCCC(F)(F)C(F)(F)C(F)(F)C(F)(F)C(F)(F)C(F)(F)F)C(O)C(O)C1O (configuration not stated) | > 100 µM
42 | CSC1=N/C(=C\c2ccc(C)cc2)C(=O)N1 | > 100 µM
43 | COc1cc2c(cc1OCCCNC(=O)c1cc3ccccc3[nH]1)N=C[C@@H]1CCCN1C2=O | 0.418 µM
44 | COC(=O)/C(C)=N/NC(=S)SC | > 100 µM
45 | CC1=CC[C@H](C[C@H](C#CCCCC2OCCO2)O[Si](C(C)C)(C(C)C)C(C)C)C(=O)CC1 | > 100 µM
46 | CC1=NN(c2cccc(S(=O)(=O)O)c2)C2(C1)C(Cl)C(=O)N2c1nc2ccccc2s1 (configuration not stated) | 15.4 µM
47 | [O-][n+]1nc(N2CCOCC2)nc2ccccc21 | > 100 µM
48 | COc1ccc(NC(=S)Nc2cc(C)ccn2)cc1 | > 100 µM
49 | Cc1sc2nc(N(C)C)oc(=O)c2c1C | > 100 µM
50 | Cc1cccc(N/C(=C(/C(Cl)=C(Cl)Cl)[N+](=O)[O-])n2nnc3ccccc32)c1 | 36.3 µM
51 | NC(CSS(=O)(=O)O)=NC1CC2CCC1C2 (configuration not stated) | > 100 µM
52 | CN1CCC23c4c5ccc(Oc6nnnn6-c6ccccc6)c4OC2c2[nH]c4ccccc4c2CC3(O)C1C5 (configuration not stated) | 3.28 µM
53 | Cc1cn(C2OC(CO[Si](C)(C)C(C)(C)C)/C(=C\C#N)C2O[Si](C)(C)C(C)(C)C)c(=O)[nH]c1=O (configuration not stated) | 37.1 µM
54 | C[C@]12CCC(O)CC1=CC[C@@H]1[C@@H]2CC[C@]2(C)C(O)[C@H](n3ccnc3)C[C@@H]12 (some centres not stated) | > 100 µM
55 | O=C(CC(O)(C(F)(F)F)C(F)(F)F)C(c1ccccc1)C(O)(C(F)(F)F)C(F)(F)F (configuration not stated) | > 100 µM
56 | CC(C)CCCC(C)[C@H]1CC[C@H]2n3c(nnc3-c3ccccc3)CCC[C@]12C (some centres not stated) | 29.8 µM
57 | OC1=C2c3ccccc3NC2Oc2cc(F)ccc21 (configuration not stated) | 41.8 µM
